Test results reported in the Kinase Knowledgebase extract (Sharma et al. 2016).
“And” between values parts separate entries of the source, which are not always exact repeats. Identical values can stand only once.

Target: EGFR (UniProt P00533)
Assay: Inhibition of EGFR Kinase Activity

EGFR, sequence (P00533 whole entry, looked up): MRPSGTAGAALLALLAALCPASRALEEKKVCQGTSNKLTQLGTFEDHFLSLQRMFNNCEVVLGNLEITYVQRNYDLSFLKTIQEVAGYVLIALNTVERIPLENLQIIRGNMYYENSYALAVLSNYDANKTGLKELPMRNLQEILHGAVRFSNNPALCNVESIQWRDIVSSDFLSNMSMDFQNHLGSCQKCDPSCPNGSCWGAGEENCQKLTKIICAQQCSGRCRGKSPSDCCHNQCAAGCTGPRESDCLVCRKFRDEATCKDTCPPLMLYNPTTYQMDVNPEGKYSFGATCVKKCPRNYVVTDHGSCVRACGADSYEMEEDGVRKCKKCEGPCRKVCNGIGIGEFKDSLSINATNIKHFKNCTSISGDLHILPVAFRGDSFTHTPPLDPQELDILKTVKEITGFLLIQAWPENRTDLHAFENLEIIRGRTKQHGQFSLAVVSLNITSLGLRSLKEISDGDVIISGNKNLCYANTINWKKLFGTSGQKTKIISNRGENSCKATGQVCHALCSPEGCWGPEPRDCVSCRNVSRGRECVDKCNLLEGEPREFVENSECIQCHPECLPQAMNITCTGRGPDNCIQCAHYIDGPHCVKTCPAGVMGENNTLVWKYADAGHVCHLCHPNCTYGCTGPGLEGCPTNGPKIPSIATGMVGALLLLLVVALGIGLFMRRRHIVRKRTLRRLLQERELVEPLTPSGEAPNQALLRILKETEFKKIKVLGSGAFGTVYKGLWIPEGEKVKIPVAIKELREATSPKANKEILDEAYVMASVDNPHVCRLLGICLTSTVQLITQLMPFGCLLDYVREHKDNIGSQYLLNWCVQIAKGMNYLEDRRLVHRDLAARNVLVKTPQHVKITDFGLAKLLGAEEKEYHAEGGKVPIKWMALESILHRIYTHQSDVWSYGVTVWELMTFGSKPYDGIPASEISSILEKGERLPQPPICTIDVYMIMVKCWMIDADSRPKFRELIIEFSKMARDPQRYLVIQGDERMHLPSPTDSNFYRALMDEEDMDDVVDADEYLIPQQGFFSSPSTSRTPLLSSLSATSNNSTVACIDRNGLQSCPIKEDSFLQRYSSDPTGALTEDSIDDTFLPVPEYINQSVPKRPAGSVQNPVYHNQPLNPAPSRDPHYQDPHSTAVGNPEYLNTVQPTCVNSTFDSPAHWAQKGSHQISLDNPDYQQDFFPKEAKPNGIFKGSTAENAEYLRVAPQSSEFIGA

SMILES | IC50
Nc1ccc2ncnc(Nc3cccc(C(F)(F)F)c3)c2c1 | 575 nM
CN(C)c1ccc2ncnc(Nc3cccc(Br)c3)c2c1 | 85 nM
O=[N+]([O-])c1cc2c(Nc3cccc(Br)c3)ncnc2cc1Cl | 25 nM
Nc1ccc2ncnc(Nc3ccccc3)c2c1 | 776 nM
Fc1cc2c(Nc3cccc(Br)c3)ncnc2cn1 | 125 nM
Nc1cc2ncnc(Nc3cccc(F)c3)c2cn1 | 850 nM
Nc1cc2ncnc(Nc3ccc(C(F)(F)F)cc3)c2cn1 | 4780 nM
Clc1cccc(Nc2ncnc3ccccc23)c1 | 23.4 nM
COc1cc2ncnc(Nc3cccc(Br)c3)c2cn1 | 39 nM
COc1ccc2ncnc(Nc3ccccc3)c2c1 | 56 nM and 120 nM
OCN(CO)N1=CC=C2N=CN=C(Nc3cccc(Br)c3)C2=C1 | 14 nM
Nc1ccc2c(Nc3ccccc3)ncnc2c1 | 100 nM
Clc1cc2c(Nc3cccc(Br)c3)ncnc2cn1 | 40 nM
COc1cc2ncnc(Nc3ccccc3)c2cc1OC | 29 nM
COc1ccc2ncnc(Nc3cccc(Br)c3)c2c1 | 354 nM
Cc1cccc(Nc2ncnc3cnc(Cl)nc23)c1 | 380 nM
Brc1cccc(Nc2ncnc3ccccc23)c1 | 27.5 nM
Cc1cccc(Nc2ncnc3cnc(N)nc23)c1 | 17 nM
CN(C)c1cc2ncnc(Nc3cccc(Br)c3)c2cc1N | 160 nM
Fc1cccc(Nc2ncnc3ccccc23)c1 | 56 nM
COc1ccc2c(Nc3cccc(Br)c3)ncnc2n1 | 260 nM
Nc1cc2ncnc(Nc3ccccc3)c2cn1 | 251 nM
CN(C)c1ccc2c(Nc3cccc(Br)c3)ncnc2n1 | 330 nM

SMILES | IC50
O=[N+]([O-])c1ccc2c(Nc3cccc(Cl)c3)ncnc2c1 | 812 nM
CN(CC(=O)O)N1=CC=C2N=CN=C(Nc3cccc(Br)c3)C2=C1 | 16 nM
Ic1cccc(Nc2ncnc3ccccc23)c1 | 81 nM
O=[N+]([O-])c1ccc2ncnc(Nc3cccc(Br)c3)c2c1 | 912 nM
CN(C)c1cccc(Nc2ncnc3cc(N)ncc23)c1 | 1810 nM
CC(=O)Nc1ccc2c(Nc3cccc(Br)c3)ncnc2c1 | 40 nM
CC(=O)Nc1cc2ncnc(Nc3cccc(Br)c3)c2cn1 | 29 nM
COc1cc2ncnc(Nc3cccc(Br)c3)c2cc1[N+](=O)[O-] | 15 nM
O=[N+]([O-])c1ccc2c(Nc3cccc(Br)c3)ncnc2c1 | 1000 nM
Clc1ncc2ncnc(Nc3cccc(Br)c3)c2n1 | 83 nM
COc1ccc(Nc2ncnc3cc(N)ncc23)cc1 | 670 nM
CNc1cc2ncnc(Nc3cccc(Br)c3)c2cc1[N+](=O)[O-] | 69 nM
CN(C)CCN(C)N1=CC=C2N=CN=C(Nc3cccc(Br)c3)C2=C1 | 40 nM
O=[N+]([O-])c1ccc2c(Nc3cccc(I)c3)ncnc2c1 | 549 nM
CN(C)CCNN1=CC=C2N=CN=C(Nc3cccc(Br)c3)C2=C1 | 45 nM
Cc1cccc(Nc2ncnc3ccccc23)c1 | 912 nM
COc1ccccc1Nc1ncnc2cc(N)ncc12 | 3710 nM
Nc1cc2ncnc(Nc3cccc(O)c3)c2cn1 | 70 nM
Nc1cc2ncnc(Nc3ccccc3Br)c2cn1 | 245 nM
CN(C)c1ccc(Nc2ncnc3cc(N)ncc23)cc1 | 4890 nM
FC(F)(F)c1cccc(Nc2ncnc3ccccc23)c1 | 588 nM
Nc1cc2ncnc(Nc3ccccc3N)c2cn1 | 5370 nM

More lines, in order of falling IC50, values ahead:

IC50 | SMILES
13 nM | CNc1ncc2ncnc(Nc3ccccc3)c2n1
13 nM | Fc1cc2ncnc(Nc3cccc(Br)c3)c2cn1
12 nM | OCCN(CCO)N1=CC=C2N=CN=C(Nc3cccc(Br)c3)C2=C1
11 nM | CN(C)c1ccc2c(Nc3cccc(Br)c3)ncnc2c1
10 nM | Nc1cc2ncnc(Nc3cccc(Br)c3)c2cn1
10 nM | COc1ccc2c(Nc3cccc(Br)c3)ncnc2c1
9.7 nM | CN(C)c1ccc2ncnc(Nc3cccc(Br)c3)c2n1
8.9 nM | CN(C)CCCNN1=CC=C2N=CN=C(Nc3cccc(Br)c3)C2=C1
8.5 nM | CN(C)CCCCCNN1=CC=C2N=CN=C(Nc3cccc(Br)c3)C2=C1
7.7 nM | Nc1ccc2ncnc(Nc3cccc(Br)c3)c2n1
7.4 nM | CN(C)CCCCNN1=CC=C2N=CN=C(Nc3cccc(Br)c3)C2=C1
7.2 nM | NNN1=CC=C2N=CN=C(Nc3cccc(Br)c3)C2=C1
6.6 nM | Nc1cc2c(Nc3cccc(Br)c3)ncnc2cc1Cl
5.6 nM | CN1CCN(CCCNN2=CC=C3N=CN=C(Nc4cccc(C)c4)C3=C2)CC1
5.4 nM | Brc1cccc(NC2=NC=NC3=CC=N(NCCCCN4CCOCC4)C=C23)c1
5.4 nM | CN(C)CCCCNN1=CC=C2N=CN=C(Nc3cccc(C)c3)C2=C1
5 nM | CN1CCN(CCCNN2=CC=C3N=CN=C(Nc4cccc(Br)c4)C3=C2)CC1
4.7 nM | Oc1ccc2c(Nc3cccc(Br)c3)ncnc2c1
4 nM | Cc1cccc(Nc2ncnc3cnc(N(C)C)nc23)c1
4 nM | CNc1ccc2ncnc(Nc3cccc(Br)c3)c2c1
3.8 nM | COc1cc2ncnc(Nc3cccc(Br)c3)c2cc1N
3.8 nM | COc1ncc2ncnc(Nc3cccc(Br)c3)c2n1
3.5 nM | Cc1cccc(NC2=NC=NC3=CC=N(NCCCn4ccnc4)C=C23)c1
3.2 nM | CN(CC(O)CO)N1=CC=C2N=CN=C(Nc3cccc(Br)c3)C2=C1
3.2 nM | Brc1cccc(NC2=NC=NC3=CC=N(NCCN4CCOCC4)C=C23)c1
3.1 nM | CNc1ccc2ncnc(Nc3cccc(Br)c3)c2n1
3 nM | Cc1cccc(Nc2ncnc3cnc(NCCc4c[nH]cn4)nc23)c1

IC50 | SMILES
2.6 nM | COc1cc2c(Nc3cccc(Br)c3)ncnc2cn1
2.6 nM | CN(CCO)N1=CC=C2N=CN=C(Nc3cccc(Br)c3)C2=C1
2.3 nM | Brc1cccc(Nc2ncnc3cnc(NCCn4ccnc4)nc23)c1
2.3 nM | Cc1cccc(Nc2ncnc3cnc(NCCN4CCOCC4)nc23)c1
1.9 nM | Brc1cccc(NC2=NC=NC3=CC=N(NCCCN4CCOCC4)C=C23)c1
1.5 nM | OC(=O)CNN1=CC=C2N=CN=C(Nc3cccc(Br)c3)C2=C1
1.5 nM | Nc1ncc2ncnc(Nc3cccc(Br)c3)c2n1
1.4 nM | OS(=O)(=O)CCNN1=CC=C2N=CN=C(Nc3cccc(Br)c3)C2=C1
1.2 nM | OCCN(CCO)CCCNN1=CC=C2N=CN=C(Nc3cccc(Br)c3)C2=C1
0.97 nM | COc1cc2ncnc(Nc3ccc(Br)cc3)c2cc1OC
0.9 nM | OCC(O)CNN1=CC=C2N=CN=C(Nc3cccc(Br)c3)C2=C1
0.9 nM | Brc1cccc(NC2=NC=NC3=CC=N(NCCc4c[nH]cn4)C=C23)c1
0.89 nM | COc1cc2ncnc(Nc3cccc(I)c3)c2cc1OC
0.8 nM | Brc1cccc(Nc2ncnc3cnc(NCCN4CCOCC4)nc23)c1
0.7 nM | CNc1ncc2ncnc(Nc3cccc(Br)c3)c2n1
0.69 nM | CNc1cc2ncnc(Nc3cccc(Br)c3)c2cc1N
0.6 nM | OC(=O)CCNN1=CC=C2N=CN=C(Nc3cccc(Br)c3)C2=C1
0.5 nM | Brc1cccc(NC2=NC=NC3=CC=N(NCCCn4ccnc4)C=C23)c1
0.24 nM | COc1cc2ncnc(Nc3cccc(C(F)(F)F)c3)c2cc1OC
0.2 nM | OC(=O)CCCNN1=CC=C2N=CN=C(Nc3cccc(Br)c3)C2=C1
0.2 nM | Brc1cccc(Nc2ncnc3cnc(NCCc4c[nH]cn4)nc23)c1
0.2 nM | OCCNN1=CC=C2N=CN=C(Nc3cccc(Br)c3)C2=C1
0.17 nM | CCCOc1cc2ncnc(Nc3cccc(Br)c3)c2cc1OCCC
0.17 nM | Oc1cc2ncnc(Nc3cccc(Br)c3)c2cc1O
0.12 nM | Nc1cc2ncnc(Nc3cccc(Br)c3)c2cc1N
0.006 nM | CCOc1cc2ncnc(Nc3cccc(Br)c3)c2cc1OCC
